{"source": "PubChem BioAssay (NCI)", "test_in_all_cases": "growth of human tumour cells (NCI), 48 h", "key": {"[1]": {"tested_on": "HCT-116 colon"}, "[2]": {"tested_on": "CAKI-1 renal"}, "[3]": {"tested_on": "NCI-H460 lung"}, "[4]": {"tested_on": "MALME-3M melanoma"}, "[5]": {"tested_on": "TK-10 renal"}, "[6]": {"tested_on": "NCI/ADR-RES ovarian"}, "[7]": {"tested_on": "M14 melanoma"}, "[8]": {"tested_on": "SF-539 CNS"}, "[9]": {"tested_on": "MCF7 breast"}, "[10]": {"tested_on": "OVCAR-5 ovarian"}}, "note": "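Briefly, cells in 96-well plates were exposed to five compound concentrations for 48 h, and endpoints were estimated by linear interpolation. GI50 is the concentration that inhibits growth by half. TGI: total growth inhibition.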", "data": [{"smiles": "COC(=O)Nc1nc2ccc(S(=O)(=O)c3ccc(NC(=O)Nc4cc(C(F)(F)F)ccc4F)cc3)cc2[nH]1", "values": [{"measurement": "GI50", "setting": "[1]", "value": "> 25", "unit": "µM"}, {"measurement": "TGI", "setting": "[1]", "value": "> 25", "unit": "µM"}, {"measurement": "GI50", "setting": "[2]", "value": "> 25", "unit": "µM"}, {"measurement": "TGI", "setting": "[2]", "value": "> 25", "unit": "µM"}, {"measurement": "GI50", "setting": "[3]", "value": "> 25", "unit": "µM"}, {"measurement": "TGI", "setting": "[3]", "value": "> 25", "unit": "µM"}, {"measurement": "GI50", "setting": "[4]", "value": "> 25", "unit": "µM"}, {"measurement": "TGI", "setting": "[4]", "value": "> 25", "unit": "µM"}, {"measurement": "GI50", "setting": "[5]", "value": "> 25", "unit": "µM"}, {"measurement": "TGI", "setting": "[5]", "value": "> 25", "unit": "µM"}, {"measurement": "GI50", "setting": "[6]", "value": "> 25", "unit": "µM"}, {"measurement": "TGI", "setting": "[6]", "value": "> 25", "unit": "µM"}, {"measurement": "GI50", "setting": "[7]", "value": "> 25", "unit": "µM"}, {"measurement": "TGI", "setting": "[7]", "value": "> 25", "unit": "µM"}, {"measurement": "GI50", "setting": "[8]", "value": "> 25", "unit": "µM"}, {"measurement": "TGI", "setting": "[8]", "value": "> 25", "unit": "µM"}, {"measurement": "GI50", "setting": "[9]", "value": "> 25", "unit": "µM"}, {"measurement": "TGI", "setting": "[9]", "value": "> 25", "unit": "µM"}, {"measurement": "GI50", "setting": "[10]", "value": "> 25", "unit": "µM"}, {"measurement": "TGI", "setting": "[10]", "value": "> 25", "unit": "µM"}]}, {"smiles": "Cc1ccc([N+](=O)[O-])c2c(NCCC[N+](C)(C)[O-])ccnc12", "values": [{"measurement": "TGI", "setting": "[1]", "value": "> 100", "unit": "µM"}, {"measurement": "TGI", "setting": "[2]", "value": "> 100", "unit": "µM"}, {"measurement": "TGI", "setting": "[3]", "value": 80.1, "unit": "µM"}, {"measurement": "TGI", "setting": "[4]", "value": "> 100", "unit": "µM"}, {"measurement": "TGI", "setting": "[5]", "value": "> 100", "unit": "µM"}, {"measurement": "TGI", "setting": "[6]", "value": "> 100", "unit": "µM"}, {"measurement": "TGI", "setting": "[7]", "value": "> 100", "unit": "µM"}, {"measurement": "TGI", "setting": "[8]", "value": "> 100", "unit": "µM"}, {"measurement": "TGI", "setting": "[9]", "value": 38.1, "unit": "µM"}, {"measurement": "TGI", "setting": "[10]", "value": 84.3, "unit": "µM"}]}, {"smiles": "CCCC(CCC)C(=O)OCC1(CO)C/C(=C\\c2ccc(C(F)(F)F)cc2)C(=O)O1", "note": "(stereo not given)", "values": [{"measurement": "GI50", "setting": "[1]", "value": 12.6, "unit": "µM"}, {"measurement": "TGI", "setting": "[1]", "value": 25.6, "unit": "µM"}, {"measurement": "GI50", "setting": "[2]", "value": 6.16, "unit": "µM"}, {"measurement": "TGI", "setting": "[2]", "value": 21.2, "unit": "µM"}, {"measurement": "GI50", "setting": "[3]", "value": 3.04, "unit": "µM"}, {"measurement": "TGI", "setting": "[3]", "value": 21.7, "unit": "µM"}, {"measurement": "GI50", "setting": "[4]", "value": 16.4, "unit": "µM"}, {"measurement": "TGI", "setting": "[4]", "value": 31.7, "unit": "µM"}, {"measurement": "GI50", "setting": "[5]", "value": 5.62, "unit": "µM"}, {"measurement": "TGI", "setting": "[5]", "value": 20.3, "unit": "µM"}, {"measurement": "GI50", "setting": "[6]", "value": 15.3, "unit": "µM"}, {"measurement": "TGI", "setting": "[6]", "value": 32, "unit": "µM"}, {"measurement": "GI50", "setting": "[7]", "value": 10.7, "unit": "µM"}, {"measurement": "TGI", "setting": "[7]", "value": 23.2, "unit": "µM"}, {"measurement": "GI50", "setting": "[8]", "value": 11.8, "unit": "µM"}, {"measurement": "TGI", "setting": "[8]", "value": 24.2, "unit": "µM"}, {"measurement": "GI50", "setting": "[9]", "value": 17.4, "unit": "µM"}, {"measurement": "TGI", "setting": "[9]", "value": 33.9, "unit": "µM"}, {"measurement": "GI50", "setting": "[10]", "value": 17.1, "unit": "µM"}, {"measurement": "TGI", "setting": "[10]", "value": 31.7, "unit": "µM"}]}, {"smiles": "COc1ccc2c(c1)C=C1CSCC3=Cc4cc(OC)ccc4OC13O2", "values": [{"measurement": "GI50", "setting": "[1]", "value": 0.471, "unit": "µM"}, {"measurement": "TGI", "setting": "[1]", "value": "> 100", "unit": "µM"}, {"measurement": "GI50", "setting": "[2]", "value": 0.41, "unit": "µM"}, {"measurement": "TGI", "setting": "[2]", "value": "> 100", "unit": "µM"}, {"measurement": "GI50", "setting": "[3]", "value": 0.387, "unit": "µM"}, {"measurement": "TGI", "setting": "[3]", "value": "> 100", "unit": "µM"}, {"measurement": "GI50", "setting": "[4]", "value": 0.473, "unit": "µM"}, {"measurement": "TGI", "setting": "[4]", "value": "> 100", "unit": "µM"}, {"measurement": "GI50", "setting": "[5]", "value": "> 100", "unit": "µM"}, {"measurement": "TGI", "setting": "[5]", "value": "> 100", "unit": "µM"}, {"measurement": "GI50", "setting": "[6]", "value": 0.308, "unit": "µM"}, {"measurement": "TGI", "setting": "[6]", "value": "> 100", "unit": "µM"}, {"measurement": "GI50", "setting": "[7]", "value": 0.323, "unit": "µM"}, {"measurement": "TGI", "setting": "[7]", "value": "> 100", "unit": "µM"}, {"measurement": "GI50", "setting": "[8]", "value": 0.254, "unit": "µM"}, {"measurement": "TGI", "setting": "[8]", "value": 0.816, "unit": "µM"}, {"measurement": "GI50", "setting": "[9]", "value": 0.313, "unit": "µM"}, {"measurement": "TGI", "setting": "[9]", "value": "> 100", "unit": "µM"}, {"measurement": "GI50", "setting": "[10]", "value": 0.757, "unit": "µM"}, {"measurement": "TGI", "setting": "[10]", "value": "> 100", "unit": "µM"}]}, {"smiles": "NS(=O)(=O)c1ccc(N2N=C(c3cccs3)CC2c2ccccc2O)cc1", "note": "(stereo not given)", "values": [{"measurement": "GI50", "setting": "[1]", "value": 1.15, "unit": "µM"}, {"measurement": "TGI", "setting": "[1]", "value": 3.96, "unit": "µM"}, {"measurement": "GI50", "setting": "[2]", "value": 1.47, "unit": "µM"}, {"measurement": "TGI", "setting": "[2]", "value": 8.19, "unit": "µM"}, {"measurement": "GI50", "setting": "[3]", "value": 1.16, "unit": "µM"}, {"measurement": "TGI", "setting": "[3]", "value": 4.24, "unit": "µM"}, {"measurement": "GI50", "setting": "[4]", "value": 4.81, "unit": "µM"}, {"measurement": "TGI", "setting": "[4]", "value": 13.5, "unit": "µM"}, {"measurement": "GI50", "setting": "[5]", "value": 1.09, "unit": "µM"}, {"measurement": "TGI", "setting": "[5]", "value": 5.47, "unit": "µM"}, {"measurement": "GI50", "setting": "[6]", "value": 4.84, "unit": "µM"}, {"measurement": "TGI", "setting": "[6]", "value": 19, "unit": "µM"}, {"measurement": "GI50", "setting": "[7]", "value": 1.07, "unit": "µM"}, {"measurement": "TGI", "setting": "[7]", "value": 4.1, "unit": "µM"}, {"measurement": "GI50", "setting": "[8]", "value": 0.706, "unit": "µM"}, {"measurement": "TGI", "setting": "[8]", "value": 1.76, "unit": "µM"}, {"measurement": "GI50", "setting": "[9]", "value": 1.01, "unit": "µM"}, {"measurement": "TGI", "setting": "[9]", "value": 4.45, "unit": "µM"}, {"measurement": "GI50", "setting": "[10]", "value": 1.25, "unit": "µM"}, {"measurement": "TGI", "setting": "[10]", "value": 6.11, "unit": "µM"}]}, {"smiles": "CCC(=O)c1c(C(F)(F)F)n([O-])c2ccccc2[n+]1=O", "values": [{"measurement": "GI50", "setting": "[1]", "value": 1.56, "unit": "µM"}, {"measurement": "TGI", "setting": "[1]", "value": 8.83, "unit": "µM"}, {"measurement": "GI50", "setting": "[2]", "value": 1.54, "unit": "µM"}, {"measurement": "TGI", "setting": "[2]", "value": 6.03, "unit": "µM"}, {"measurement": "GI50", "setting": "[3]", "value": 0.695, "unit": "µM"}, {"measurement": "TGI", "setting": "[3]", "value": 2.6, "unit": "µM"}, {"measurement": "GI50", "setting": "[4]", "value": 1.69, "unit": "µM"}, {"measurement": "TGI", "setting": "[4]", "value": 6.16, "unit": "µM"}, {"measurement": "GI50", "setting": "[5]", "value": 2.81, "unit": "µM"}, {"measurement": "TGI", "setting": "[5]", "value": 14.5, "unit": "µM"}, {"measurement": "GI50", "setting": "[6]", "value": 1.36, "unit": "µM"}, {"measurement": "TGI", "setting": "[6]", "value": 13.3, "unit": "µM"}, {"measurement": "GI50", "setting": "[7]", "value": 1.7, "unit": "µM"}, {"measurement": "TGI", "setting": "[7]", "value": 6.19, "unit": "µM"}, {"measurement": "GI50", "setting": "[8]", "value": 2.81, "unit": "µM"}, {"measurement": "TGI", "setting": "[8]", "value": 10.2, "unit": "µM"}, {"measurement": "GI50", "setting": "[9]", "value": 1.08, "unit": "µM"}, {"measurement": "TGI", "setting": "[9]", "value": 6.72, "unit": "µM"}, {"measurement": "GI50", "setting": "[10]", "value": 3.89, "unit": "µM"}, {"measurement": "TGI", "setting": "[10]", "value": 13.1, "unit": "µM"}]}, {"smiles": "Clc1ccc(/C=C/c2nc(Cl)c(-c3ccc(Cl)cc3)c(Cl)n2)cc1", "values": [{"measurement": "TGI", "setting": "[1]", "value": "> 100", "unit": "µM"}, {"measurement": "TGI", "setting": "[2]", "value": "> 100", "unit": "µM"}, {"measurement": "TGI", "setting": "[3]", "value": "> 100", "unit": "µM"}, {"measurement": "TGI", "setting": "[4]", "value": "> 100", "unit": "µM"}, {"measurement": "TGI", "setting": "[5]", "value": "> 100", "unit": "µM"}, {"measurement": "TGI", "setting": "[6]", "value": "> 100", "unit": "µM"}, {"measurement": "TGI", "setting": "[7]", "value": "> 100", "unit": "µM"}, {"measurement": "TGI", "setting": "[8]", "value": "> 100", "unit": "µM"}, {"measurement": "TGI", "setting": "[9]", "value": "> 100", "unit": "µM"}, {"measurement": "TGI", "setting": "[10]", "value": "> 100", "unit": "µM"}]}]}
